Consider one molecule from US20240207265A1, “TREATMENT OF CNS DISEASES WITH sGC STIMULATORS” (Tisento Therapeutics Inc., priority 2021, published 2024).

For one assay, the system named is sGC enzyme. As to the kind of experiment: cGMP GloSensor cell-based assay, 384-well format (HEK293). Also on record: species or system human. Particulars: HEK293 GloSensor 40F cGMP cells, 10 μM DETA-NONOate, geometrical mean; read-out: Glo EC50. The source says: Human embryonic kidney cells (HEK293) cells expressing GloSensor™ 40F cGMP (Part No: CS182801, Promega) were used to evaluate the activity of test compounds. The luminescent biosensors (engineered luciferase) that were incorporated into these cells detect cGMP formed by the compounds stimulating the sGC enzyme and emit luminescence.
cGMP GloSensor cells were maintained in Dulbecco's Modification of Eagle's Medium (DMEM) supplemented with fetal bovine serum (FBS, 10% final) and hygromycine (200 ug/ml). The day before assay, cells were plated in DMEM with 10% FBS in a 50 μL volume at a density of 1.5×10^4 cells/well in a poly-D-lysine coated 384-well flat white-bottom plate (Corning Cat No 35661). Cells were incubated overnight at 37° C. in a humidified chamber with 5% CO2. The next day, medium was removed and cells were replaced with 40 ul/well of GloSensor™, 2 mM (Promega Cat No E1291). Cells were treated for 90 minutes at 25° C. to allow the substrate to equilibrate in the cells. Test compounds and Diethylenetriamine NONOate (DETA-NONOate) was diluted to 3 mM (20×) in serum-free CO2 independent medium and serially diluted at 4× dilutions to create 5× dose curve from which 10 ul was added to the wells (x μM concentration for test compound solution and 10 μM concentration for DETA-NONOate solution; wherein x is one of the following final concentrations: 30 μM, 7.5 μM, 1.9 μM, 469 nM, 117 nM, 29.3 nM, 7.3 nM, 1.83 nM, 0.46 nM, 0.11 nM, 0.03 nM) For the kinetics studies, luminescense was measured right away for 0.2 sec per well with Envision (Perkin Elmer). For endpoint SAR screening, data were collected after 55 min incubation at room temperature.
Concentration response data were analyzed using a 4-parameter fit (log (agonist) vs. response-variable slope). The EC50 was interpolated from the curve fit and is defined as the concentration at which the compound elicits 50% of its maximal response. When the experiment was carried out multiple times for a given compound, the geometrical mean of all experiments is reported.

A further assay addresses T1, human α2β1 sGC isozyme (Homo sapiens, UniProt P33402+Q02153).
T1 construct: host or cells: CHO-K1
T1 sequence (P33402 1-732): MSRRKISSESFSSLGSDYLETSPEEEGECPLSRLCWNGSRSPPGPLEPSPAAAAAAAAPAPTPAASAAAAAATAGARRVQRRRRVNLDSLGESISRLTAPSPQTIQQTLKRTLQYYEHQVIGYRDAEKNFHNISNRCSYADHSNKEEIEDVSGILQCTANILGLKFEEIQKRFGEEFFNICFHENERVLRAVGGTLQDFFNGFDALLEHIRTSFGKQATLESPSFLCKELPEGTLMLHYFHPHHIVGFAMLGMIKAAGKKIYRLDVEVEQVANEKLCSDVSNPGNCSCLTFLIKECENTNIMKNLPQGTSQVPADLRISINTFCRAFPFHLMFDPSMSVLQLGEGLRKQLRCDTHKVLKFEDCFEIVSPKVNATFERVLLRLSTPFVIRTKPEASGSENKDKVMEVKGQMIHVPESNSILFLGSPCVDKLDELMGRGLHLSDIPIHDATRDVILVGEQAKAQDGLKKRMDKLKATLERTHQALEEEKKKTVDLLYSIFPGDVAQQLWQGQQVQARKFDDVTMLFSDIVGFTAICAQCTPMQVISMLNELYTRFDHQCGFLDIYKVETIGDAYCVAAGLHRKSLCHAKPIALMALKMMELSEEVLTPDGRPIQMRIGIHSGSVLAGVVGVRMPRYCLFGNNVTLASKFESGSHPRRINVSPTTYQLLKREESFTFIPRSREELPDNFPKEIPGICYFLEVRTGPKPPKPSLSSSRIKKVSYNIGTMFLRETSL
T1 sequence (Q02153 1-619): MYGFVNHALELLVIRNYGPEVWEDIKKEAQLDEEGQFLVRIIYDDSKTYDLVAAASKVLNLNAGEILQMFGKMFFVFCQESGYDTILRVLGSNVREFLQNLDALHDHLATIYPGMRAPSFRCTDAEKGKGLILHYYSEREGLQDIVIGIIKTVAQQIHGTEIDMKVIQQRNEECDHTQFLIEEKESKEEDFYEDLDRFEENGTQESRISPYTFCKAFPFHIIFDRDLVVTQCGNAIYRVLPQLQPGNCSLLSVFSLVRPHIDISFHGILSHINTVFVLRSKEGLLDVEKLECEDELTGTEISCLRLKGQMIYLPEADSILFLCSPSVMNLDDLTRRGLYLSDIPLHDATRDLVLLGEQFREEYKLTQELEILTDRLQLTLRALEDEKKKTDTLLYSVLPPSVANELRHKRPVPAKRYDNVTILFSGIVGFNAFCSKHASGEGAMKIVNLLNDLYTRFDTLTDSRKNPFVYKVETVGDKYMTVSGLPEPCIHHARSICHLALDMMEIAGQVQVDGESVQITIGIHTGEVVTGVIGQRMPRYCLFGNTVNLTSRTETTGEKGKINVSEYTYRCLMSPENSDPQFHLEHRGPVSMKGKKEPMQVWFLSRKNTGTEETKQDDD
As to the kind of experiment: cGMP assay in CHO-K1 cells stably expressing human α2β1 sGC isozyme. In kind it is cell-based. Particulars: 10 μM DETA-NONOate. As to the method:
sGC stimulators were dissolved in DMSO as a 10 mM solution and stored at −20° C. To achieve desired test concentrations, stock concentrations were serially diluted into DMSO and then diluted to the appropriate concentration in assay buffer.
CHO-K1 cells stably transfected with human α2β1 sGC isozyme (generated by GenScript for Ironwood) were cultured in F-12K medium (ATCC catalog #30-2004) with 10% fetal calf serum, 4 μg/mL puromycin (Gibco catalog #A11138-03) and 0.4 mg/mL of geneticin (Gibco catalog #10131-027) in a 95% humidified atmosphere containing 5% CO2 in air at 37° C. For GC activity assays, cells were seeded in 384 well poly-D-lysine coated flat bottom plates (Fisher Scientific #08-774-311) in either 50 μL or 70 μL medium at a density of either 3×10^4 cells/well or 15×10^3, respectively. Cells were incubated for 24 hours at 37° C. in a humidified chamber supplemented with 5% CO2.
For each test concentration, the compound was diluted in 100% DMSO to 100-fold of its final assay concentration. Immediately prior to the assay, the solution was diluted 20-fold into HBSS containing calcium, magnesium, and 50 μM DETA-NONOate (5× the final assay concentration). Medium was removed and cells were washed once with 40 μL of HBSS. Cells were then incubated with 40 μL of a solution containing 0.5 mM IBMX in HBSS for 15 min at 37° C. 10 μL from the sGC stimulator/HBSS/DETA-NONOate plate was added to the cells, which were incubated for an additional 20 min at 37° C. Final DMSO concentration was 1%, final DETA-NONOate concentration was 10 μM; and final compound concentrations were 30,000 nM, 6000 nM, 1200 nM, 240 nM, 48 nM, 9.6 nM, 1.92 nM, 0.384 nM, 0.077 nM, 0.015 nM, or 0.003 nM.
Following incubation with compound, assay buffer was removed and 50 μL of ice-cold 10% acetic acid+150 ng/mL internal standard (+3 cGMP) was added to each well. Samples were incubated on ice for 30-60 min. Following centrifugation at 4° C. for 5 min at 1000×g to pellet cell debris, the supernatant was transferred to a clean plate and the samples analyzed for cGMP content.
Data were analyzed with a 4-parameter fit (log(agonist) vs. response-variable slope) using GraphPad Prism Software v.8. The EC50 was interpolated from the curve fit and is defined as the concentration at which the compound elicits 50% of its maximal response. When the experiment was carried out multiple times for a given compound, the geometrical mean of all experiments is reported.

A word on the EC50: it is the concentration giving half of the maximal effect. With `Cc1cc(F)c(Cc2nc(-c3ncc(Cl)c(O)n3)cn3ccnc23)cc1F` [Compound I-17, 5-Chloro-2-(8-(2,5-difluoro-4-methylbenzyl)imidazo[1,2-a]pyrazin-6-yl)pyrimidin-4-ol], the concentration for a half-maximal effect (EC50) in the assay on sGC enzyme and on human α2β1 sGC isozyme was no more than 0.1 µM in each case.
